Like-named read-outs stand apart in the source and are kept apart here.
Key:
Format in all cases: in vivo
mice [1] = assay: Survival time of mice under a confined atmosphere; conditions: for ED50: Mus musculus, protected = survival time greater by at least 30% than reference animals, read-out: ED50 (protects 50% of the test animals)
Procedure: 2. Survival time of mice under a confined atmosphere
Mice are individually placed in sealed 250 ml glass jars. Survival time is measured taking respiratory failure as a criterion of death.
The test materials are administered as aqueous solutions:
either intraperitoneally, in which case the animals are submitted to the test 30 minutes after injection,
or orally, in which case the animals are submitted to the test 1.5 hour after administration.
The dosage of material (ED50) which protects 50% of the test animals is determined: is considered as protected, a mouse having a survival time greater by a factor of at least 30% with respect to the average survival time of the reference animals.

spinal rat = assay: Electroencephalographic consequences of cerebral hypoxia induced by temporary ischemia in rat; conditions: for Cortical recovery time / Cortical resistance time: rat ischemia, 5 min prior; for Cortical recovery time: saline 19.8 ± 1.3; for Cortical resistance time: saline 22.3 ± 0.6
Procedure: 3. Electroencephalographic consequences of cerebral hypoxia induced by temporary ischemia in rat
In spinal rat, the effects of a temporary cerebral ischemic hypoxia obtained by ligation of the vertebral arteries and clamping, during 60 seconds, of the carotid arteries, are investigated at the level of the electrocorticogram (recorded in fronto-parietal lead). The following times are determined:
on the one hand, the "cortical resistance" time, i.e., the period of time which elapses between failure of the cerebral circulation and the appearance, in the recording, of the "dectric silence"disappearance of cortical electrogenesis), and
on the other hand, the "cortical recovery" time, i.e., the period of time which elapses between unclamping of the carotid arteries and the reappearance of a cortical electrogenesis.
The test materials are administered intravenously 5 minutes prior to ischemia. The results obtained in the treated animals are compared with those obtained in a lot of reference animals according to Student's "t" method.

curarized rat = assay: Electroencephalographic consequences of cerebral hypoxia induced by temporary asphyxia in rat; conditions: for Cortical recovery time / Cortical resistance time: rat asphyxia, 5 min prior; for Cortical recovery time: saline 42.3 ± 7.3; for Cortical resistance time: saline 77.8 ± 2.9
Excerpt: 4. Electroencephalographic consequences of a cerebral hypoxia induced by temporary asphyxia in rat
The effects of an asphyxic cerebral hypoxia, obtained by a two-minute interruption of the artificial respiration of a curarized rat are investigated at the level of the electro-corticogram (recorded in fronto-parietal lead) by determining:
on the one hand the "cortical resistance" time, i.e., the period of time which elapses between the discontinuation of artificial respiration and the appearance in the recording of the "electric silence" (disappearance of cortical electrogenesis),
(§1) on the other hand, the "cortical recovery" time, i.e., the period of time which elapses between the resumption of artificial respiration and the reappearance of a cortical electrogenesis.
(§2) The test materials are administered intravenously 5 minutes prior to asphyxia. The results obtained in the treated animals are compared with those obtained in a lot of reference animals, according to Student's "t" method.

[2] = Acute toxicity in mice (i.v.); conditions: mouse, in vivo, iv
Procedure: (§3) 1. Acute toxicity in mice
(§4) The dosage of test material which, on intravenous administration in mice causes the death of 50% of the test animals is determined (death rate is determined after 10 days of observation).

curarized cat = assay: Electroencephalographic consequences of cerebral hypoxia induced by temporary asphyxia in cat; conditions: for Cortical recovery time / Cortical resistance time: cat asphyxia, 5 min prior; for Cortical recovery time: saline 27.3 ± 2.3; for Cortical resistance time: saline 108 ± 5.6
Excerpt: 5. Electroencephalographic consequences of cerebral hypoxia induced by temporary asphyxia in cat
The effects of an asphyxic cerebral hypoxia, obtained by temporary discontinuance of the artificial respiration of a curarized cat are investigated at the level of the electrocorticogram (recorded in parieto-occipital lead), by determining:
on the one hand, the "cortical resistance" time, i.e., the period of time which elapses between the discontinuance of the artificial respiration and the appearance in the recording of the "electric silence" (disappearance of cortical electrogenesis),
as §1, with “electrogenesis. The resumption of artificial respiration is effected in all cases 45 seconds after appearance of the cortical silence.” for “electrogenesis.”
as §2

mice [3] = assay: Acute toxicity in mice (i.v.); conditions: mice
Procedure: as §3, §4

[4] = ip, 0.5 h, i.p., 30 min before test
[5] = 2.5 mg/kg i.v., n=6, mean ± standard deviation from mean
[6] = 2.5 mg/kg i.v., n=8, mean ± standard deviation from mean

With CC[C@]12CCCN3CCc4c(n(c5ccccc45)[C@@](O)(C(=O)OC)C1)[C@@H]32 (racemic) [Vincamine, (.-+.)-Vincamine] the ED50 (mice [1]; [4]) was 18 mg/kg, the ED50 (mice [1]; po, 1.5 hour before test) was 40 mg/kg and the “Number of mice protected” value (mice [1]; i.p., 1 mg/kg, 30 min before test) was 0/6. The “Number of mice protected” value (mice [1]; i.p., 5 mg/kg, 30 min before test) was 1/6, the “Number of mice protected” value (mice [1]; i.p., 25 mg/kg, 30 min before test) was 4/6 and the “Number of mice protected” value (mice [1]; p.o., 25 mg/kg, 1.5 hour before test) was 2/6. For the same compound, the “Number of mice protected” value (mice [1]; p.o., 50 mg/kg, 1.5 hour before test) was 4/6, the “Number of mice protected” value (mice [1]; p.o., 100 mg/kg, 1.5 hour before test) was 5/6 and the Cortical recovery time (spinal rat; [5]) was 21.8 ± 2.0 s. The Cortical resistance time (spinal rat; [5]) was 22.2 ± 1.2 s, the Cortical recovery time (spinal rat; 5 mg/kg i.v., n=7) was 19.9 ± 3.0 s and the Cortical resistance time (spinal rat; 5 mg/kg i.v., n=7) was 23.4 ± 0.9 s. For the same compound, the protective activity (spinal rat; rat, ischemia, 2.5 and 5 mg/kg i.v.) was “free from any protective activity”, the Cortical recovery time (curarized rat; [5]) was 55.5 ± 20.2 s and the Cortical resistance time (curarized rat; [5]) was 83.3 ± 6.4 s. The Cortical recovery time (curarized rat; 5.0 mg/kg i.v., n=6) was 32.8 ± 1.8 s, the Cortical resistance time (curarized rat; 5.0 mg/kg i.v., n=6) was 89.0 ± 7.6 s and the protective activity (curarized rat; rat, asphyxia, 2.5 and 5 mg/kg i.v.) was “free from any protective activity”. The LD50 at 240 h ([2]; mice, i.v., death rate after 10 days of observation) was 62 mg/kg, the Cortical recovery time (curarized cat; [6]) was 24.6 ± 3.4 s and the Cortical resistance time (curarized cat; [6]) was 101 ± 13.9 s. For the same compound, the Cortical recovery time (curarized cat; 5 mg/kg i.v., n=8, (*) significant P <0.05 vs controls) was 19.6 ± 1.4 s, the Cortical resistance time (curarized cat; 5 mg/kg i.v., n=8) was 101 ± 5.6 s and the protective activity (curarized cat; cat, asphyxia, 5 mg/kg i.v. (tenfold dosage)) was “apparent only at a tenfold dosage of 5 mg/kg i.v”.

In the case of COC(=O)[C@@]1(O)C[C@@H]2CCCN3CCc4c(n1c1ccccc41)[C@H]23 (relative stereo) [Deethylvincamine, (±) 20-Deethyl-vincamine], the ED50 (mice [1]; [4]) is reported as 8 mg/kg, the ED50 (mice [1]; po, 1.5 hour before test) is reported as 24.5 mg/kg and the “Number of mice protected” value (mice [1]; i.p., 3 mg/kg, 30 min before test) is reported as 1/6. The “Number of mice protected” value (mice [1]; i.p., 9 mg/kg, 30 min before test) was 3/6, the “Number of mice protected” value (mice [1]; i.p., 27 mg/kg, 30 min before test) was 6/6 and the “protective activity (increase of the survival time)” value (mice [1]; mice, confined atmosphere, i.p. and p.o., compared with vincamine) was “markedly superior to that of vincamine”. The “Number of mice protected” value (mice [1]; p.o., 7.5 mg/kg, 1.5 hour before test) was 0/6, the “Number of mice protected” value (mice [1]; p.o., 15 mg/kg, 1.5 hour before test) was 1/6 and the “Number of mice protected” value (mice [1]; p.o., 30 mg/kg, 1.5 hour before test) was 4/6. The Cortical recovery time (spinal rat; 0.25 mg/kg i.v., n=6) was 20.3 ± 2.7 s, the Cortical resistance time (spinal rat; 0.25 mg/kg i.v., n=6) was 25.3 ± 1.2 s and the Cortical recovery time (spinal rat; 0.5 mg/kg i.v., n=6, (*) significant P < 0.05 vs controls) was 14.3 ± 1.1 s. The Cortical resistance time (spinal rat; 0.5 mg/kg i.v., n=6) was 24.3 ± 1.6 s, the “protective activity (decrease of time required for resumption of cortical electrogenesis)” value (spinal rat; rat, ischemia, 0.5 mg/kg i.v.) was “marked protective activity” and the Cortical recovery time (curarized rat; 0.5 mg/kg i.v., n=6) was 38.8 ± 5.9 s. For the same compound, the Cortical resistance time (curarized rat; 0.5 mg/kg i.v., n=6) was 84.2 ± 4.5 s, the Cortical recovery time (curarized rat; 1 mg/kg i.v., n=7, (*) significant P<0.05 vs controls) was 23.0 ± 5.0 s and the Cortical resistance time (curarized rat; 1 mg/kg i.v., n=7) was 78.0 ± 5.6 s. The “protective activity (decrease of time required for resumption of cortical electrogenesis)” value (curarized rat; rat, asphyxia, 1 mg/kg i.v.) was “marked protective activity”, the “acute toxicity compared with vincamine” value (mice [3]) was “substantially of the same order of magnitude as that of vincamine” and the LD50 at 240 h [2] was 40 mg/kg. For the same compound, the Cortical recovery time (curarized cat; 0.5 mg/kg i.v., n=6, (*) significant P <0.05 vs controls) was 19.0 ± 2.0 s, the Cortical resistance time (curarized cat; 0.5 mg/kg i.v., n=6) was 98 ± 10.8 s and the “protective activity (decrease of time required for resumption of cortical electrogenesis)” value (curarized cat; cat, asphyxia, 0.5 mg/kg i.v.) was “exhibits a protective activity”.

— patent US4033969A, “Vincamine derivatives” (Agence Nationale de Valorisation de la Recherche (ANVAR), priority 1972, dated 1977)
